Patent US8227489B2, “N-(aminoheteroaryl)-1H-indole-2-carboxamide derivatives, preparation thereof and therapeutic use thereof” (Sanofi-Aventis, priority 2006, dated 2012)
Structures can show the parent of a compound that is named as a salt.

Columns and labels:
TRPV1 receptor = target: T1, TRPV1 receptor (Rattus norvegicus, UniProt O35433); assay: Inhibition of the current induced by capsaicin with regard to rat DRGs (whole cell patch clamp); assay type: cell-based; details: DRG neuron, capsaicin 1 microM response, rat DRG neurons, read-out: % Inhibition by the DRG patch technique; for inhibition at 0.001 µM: compound at 1 nM; for inhibition at 0.01 µM: compound at 10 nM
T1 construct: The neurons of the DRG naturally express the TRPV1 receptor; endogenous in cells; host or cells: primary culture of newborn rat dorsal root ganglion neurons
T1 sequence (O35433 whole entry): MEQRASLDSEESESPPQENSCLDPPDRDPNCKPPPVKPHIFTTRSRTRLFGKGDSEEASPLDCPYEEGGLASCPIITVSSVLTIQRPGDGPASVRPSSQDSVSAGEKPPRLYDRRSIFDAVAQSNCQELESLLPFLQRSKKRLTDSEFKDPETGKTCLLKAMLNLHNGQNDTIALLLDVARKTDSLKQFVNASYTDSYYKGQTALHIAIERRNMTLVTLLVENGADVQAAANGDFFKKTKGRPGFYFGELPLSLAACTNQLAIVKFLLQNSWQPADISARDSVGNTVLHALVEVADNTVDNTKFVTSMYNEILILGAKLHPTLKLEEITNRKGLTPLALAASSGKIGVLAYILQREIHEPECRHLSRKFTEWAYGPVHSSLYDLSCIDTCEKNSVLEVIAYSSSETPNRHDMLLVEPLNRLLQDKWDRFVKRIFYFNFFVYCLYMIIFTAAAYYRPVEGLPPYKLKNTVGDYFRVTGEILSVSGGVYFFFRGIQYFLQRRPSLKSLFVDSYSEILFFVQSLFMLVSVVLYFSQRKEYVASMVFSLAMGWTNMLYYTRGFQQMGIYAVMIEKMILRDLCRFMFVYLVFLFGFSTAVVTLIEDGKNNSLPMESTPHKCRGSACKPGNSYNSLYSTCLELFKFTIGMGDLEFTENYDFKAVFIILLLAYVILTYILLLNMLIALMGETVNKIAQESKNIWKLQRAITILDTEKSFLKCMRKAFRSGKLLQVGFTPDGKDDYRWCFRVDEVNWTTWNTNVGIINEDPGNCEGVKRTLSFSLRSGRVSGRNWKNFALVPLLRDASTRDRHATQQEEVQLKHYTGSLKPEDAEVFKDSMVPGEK
Description: Test of the Inhibition of the Current Induced by Capsaicin with Regard to Rat DRGs
• Primary culture of rat dorsal root ganglion (DRG) cells:
The neurons of the DRG naturally express the TRPV1 receptor.
Primary cultures of DRGs of newborn rats are prepared from one-day-old rats. Briefly, after dissection, the ganglions are trypsinized and the cells dissociated mechanically by gentle trituration. The cells are resuspended in an Eagle's basal culture medium comprising 10% of fetal calf serum, 25 mM KCl, 2 mM glutamine, 100 μg/ml of gentamicin and 50 ng/ml of NGF and then deposited on glass cover slips covered with laminin (0.25×10^6 cells per cover slip) which are subsequently placed in 12-well Corning dishes. The cells are incubated at 37° C. in a humidified atmosphere comprising 5% of CO2 and 95% of air. Cytosine β-D-arabinoside (1 μM) is added 48 h after culturing, in order to prevent the growth of non-neuronal cells. After culturing for 7-10 days, the cover slips are transferred into experimental chambers for the patch clamp studies.
The measurement chambers (volume 800 μl) comprising the cell preparation are placed on the stage of an inverted microscope (Olympus IMT2) equipped with Hoffman optics (Modulation Contrast, New York) and are observed at a magnification of 400×. The chambers are continuously perfused by gravity (2.5 ml/min) using a distributor of solutions which has 8 inlets, the single outlet of which, composed of a polyethylene tube (opening 500 μm), is placed at least 3 mm from the cell studied. The “whole cell” configuration of the patch clamp technique was used. Borosilicate glass pipettes (resistance 5-10 Mohms) are brought close to the cell using a 3D piezoelectric micromanipulator (Burleigh, PC1000). The overall currents (membrane potential set at −60 mV) are recorded with an Axopatch 1D amplifier (Axon Instruments, Foster City, Calif.) connected to a PC controlled by Pclamp8 software (Axon Instruments). The current plots are recorded on paper and simultaneously recorded digitally (sampling frequency 15 to 25 Hz) and acquired on the hard disk of the PC.
The application of a micromolar capsaicin solution produces an incoming cationic current with regard to the DRG cells (voltage set at […]). In order to minimize the desensitization of the receptors, a minimum interval of one minute between two applications of capsaicin is observed. After a control period (stabilization of the capsaicin alone response), the test compounds are applied alone at a given concentration (concentration of 10 nM or […]) for a period of time of 4 to 5 minutes, during which several capsaicin+compound tests are carried out (obtaining the maximum inhibition). The results are expressed as % of inhibition of the control capsaicin response.

TRPV1 receptors = target: T2, TRPV1 receptors (Mus musculus, UniProt Q704Y3); assay: Mouse corneal irritation test (capsaicin-induced); assay type: in vivo; details: compound 500 μM, 2 μl local application on cornea 10 minutes before 160 μM capsaicin
T2 construct: from tissue; host or cells: cornea of the living mouse (in vivo)
T2 sequence (Q704Y3 whole entry): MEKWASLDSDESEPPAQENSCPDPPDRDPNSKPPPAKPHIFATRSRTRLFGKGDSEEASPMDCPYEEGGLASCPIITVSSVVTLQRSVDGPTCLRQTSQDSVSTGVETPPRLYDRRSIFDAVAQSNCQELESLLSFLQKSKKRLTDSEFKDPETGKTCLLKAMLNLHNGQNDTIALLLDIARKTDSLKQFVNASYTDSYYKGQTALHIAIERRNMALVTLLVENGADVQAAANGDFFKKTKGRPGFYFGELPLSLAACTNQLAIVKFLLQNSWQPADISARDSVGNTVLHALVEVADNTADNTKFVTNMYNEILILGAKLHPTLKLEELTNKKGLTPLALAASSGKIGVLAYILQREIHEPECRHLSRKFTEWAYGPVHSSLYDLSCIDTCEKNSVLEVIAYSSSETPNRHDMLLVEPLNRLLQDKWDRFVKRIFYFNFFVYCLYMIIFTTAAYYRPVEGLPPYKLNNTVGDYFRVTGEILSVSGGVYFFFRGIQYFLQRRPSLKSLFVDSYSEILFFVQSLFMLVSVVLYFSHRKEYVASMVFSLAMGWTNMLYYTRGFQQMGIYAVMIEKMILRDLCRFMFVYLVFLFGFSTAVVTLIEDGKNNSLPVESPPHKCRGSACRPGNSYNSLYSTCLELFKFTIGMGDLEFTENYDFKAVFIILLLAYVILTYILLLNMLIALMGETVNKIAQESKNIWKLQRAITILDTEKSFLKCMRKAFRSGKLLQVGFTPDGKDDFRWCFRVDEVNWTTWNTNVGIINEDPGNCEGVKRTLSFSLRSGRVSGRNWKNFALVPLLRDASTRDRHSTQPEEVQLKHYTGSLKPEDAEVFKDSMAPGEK
Description: Mouse Corneal Irritation Test
The irritating nature of capsaicin is easily assessed on the cornea since this organ is one of the most innervated by C fibers. In this context, according to preliminary experiments, the application of a very small amount of capsaicin (2 μl at a concentration of 160 μM) at the surface of the cornea of an animal results in a number of kinds of stereotyped behavior related to irritation which are easy to record. These include: blinking of the eye, rubbing of the instilled eye by the ipsilateral front paw, rubbing of the face with the two front paws and scratching of the ipsilateral face by the hind paw. […] Its appearance is furthermore also normal. […] It may be concluded therefrom that the duration of action of capsaicin at these doses is less than 2 minutes.
Summary of the Methodology: […]
In practice, the test product, prepared at 25 mM in DMSO and diluted for its final use in physiological saline with 10% Tween 80 to the stronger concentration of 500 μM, is administered in local application at the surface of the cornea under a volume of 2 μl, 10 minutes before the application of the capsaicin. […] During observation for 2 minutes following the instillation, the number of rubbing actions on the instilled eye by the ipsilateral front paw is counted for each animal.
For a given group, the percentage of protection is calculated as follows: […]

SMILES: CN(C)c1ncc(NC(=O)c2cc3cc(F)ccc3n2Cc2cccc(F)c2)cc1C(F)(F)F
- melting point: 142 to 143 °C

SMILES: CN(C)C1=CNN(NC(=O)c2cc3cc(C(F)(F)F)ccc3n2Cc2cccc(F)c2)C=C1
- melting point: 138 to 139 °C

SMILES: Cc1cc(N(C)C)ncc1NC(=O)c1cc2cc(F)ccc2n1Cc1cccc(F)c1
- melting point: 183 to 185 °C

SMILES: CNc1cc(C)c(NC(=O)c2cc3cc(F)ccc3n2Cc2ccncc2)cn1
- melting point: 218 to 220 °C

SMILES: CNc1ccc(NC(=O)c2cc3cc(F)ccc3n2Cc2cccc(F)c2)cn1 [Compound 1, N-[6-(methylamino)pyridin-3-yl]-5-fluoro-1-(3-fluorobenzyl)-1H-indole-2-carboxamide]
- inhibition at 0.001 µM (TRPV1 receptor): 53%
- % P (percentage of protection) (TRPV1 receptors): 23%
- melting point: 225 to 227 °C

SMILES: Cc1cc(NC(=O)c2cc3cc(F)ccc3n2Cc2cccc(F)c2)cnc1N(C)C
- melting point: 145 to 146 °C

SMILES: CNc1cc(C)c(NC(=O)c2cc3cc(F)ccc3n2Cc2cccc(F)c2)cn1
- melting point: 215 to 217 °C

SMILES: CN(C)c1ncc(NC(=O)c2cc3cc(F)ccc3n2Cc2cccc(F)c2)cc1F
- melting point: 158 to 159 °C

SMILES: CN(C)c1ccc(NC(=O)c2cc3cc(C(F)(F)F)ccc3n2Cc2cccc(F)c2)cn1 [Compound 12, N-[6-(dimethylamino)pyridin-3-yl]-5-trifluoromethyl-1-(3-fluorobenzyl)-1H-indole-2-carboxamide]
- inhibition at 0.001 µM (TRPV1 receptor): 100%

SMILES: Cc1cc(NC(=O)c2cc3cc(F)ccc3n2Cc2ccncc2)cnc1N(C)C [Compound 19, N-[6-dimethylamino-5-methylpyridin-3-yl]-5-fluoro-1-(pyridin-4-ylmethyl)-1H-indole-2-carboxamide]
- inhibition at 0.01 µM (TRPV1 receptor): 33%
- melting point: 164 to 165 °C

SMILES: CN(C)c1ccc(NC(=O)c2cc3cc(F)ccc3n2Cc2cccc(F)c2)cn1.Cl
- melting point: 232 to 234 °C

SMILES: Cc1cc(N(C)C)ncc1NC(=O)c1cc2cc(F)ccc2n1Cc1ccncc1 [Compound 17, N-[6-dimethylamino-4-methylpyridin-3-yl]-5-fluoro-1-(pyridin-4-ylmethyl)-1H-indole-2-carboxamide]
- inhibition at 0.01 µM (TRPV1 receptor): 60%
- melting point: 217 to 219 °C

SMILES: CNc1ccc(NC(=O)c2cc3cc(F)ccc3n2Cc2ccncc2)cn1
- melting point: 220 to 222 °C

SMILES: CN(C)C1=CNN(NC(=O)c2cc3ccc(C(F)(F)F)cc3n2Cc2cccc(F)c2)C=C1
- melting point: 255 to 267 °C

SMILES: CN(C)C1=CNN(NC(=O)c2cc3cc(C(F)(F)F)ccc3n2Cc2ccncc2)C=C1.Cl
- melting point: 268 to 272 °C

SMILES: CNc1ccc(NC(=O)c2cc3cc(F)ccc3n2Cc2cccc(F)c2)c(C)n1
- melting point: 229 to 230 °C

SMILES: CN(C)C1=CNN(NC(=O)c2cc3cc(F)ccc3n2Cc2cccc(F)c2)C=C1 (as salt: hydrochloride)
- melting point: 239 to 241 °C

SMILES: CC(=O)Nc1ccc(NC(=O)c2cc3cc(F)ccc3n2Cc2cccc(F)c2)cn1
- melting point: 252 to 254 °C

SMILES: CC(=O)Nc1ccc(NC(=O)c2cc3ccc(C(F)(F)F)cc3n2Cc2cccc(F)c2)cn1
- melting point: 293 to 295 °C
